For the experiment, the target named is human FLAP (Homo sapiens (Human), UniProt P20292). Kind of experiment: FLAP binding assay (HTRF format). As to conditions: human FLAP wild type membranes, HTRF format; Table 6 (additional runs). As for the experimental part:
The ability of the compounds of the present invention to treat a FLAP-mediated disease and/or disorder, or associated symptoms or complications thereof, was determined using the following procedures. Binding assay data represent the average value obtained from two different assay plates, with samples run in duplicate on each plate. Human whole blood assay data represent a single replicate on an assay plate using whole blood from at least one healthy donor.
Data are expressed as a HTRF ratio.

Sequence of human FLAP (P20292 whole entry): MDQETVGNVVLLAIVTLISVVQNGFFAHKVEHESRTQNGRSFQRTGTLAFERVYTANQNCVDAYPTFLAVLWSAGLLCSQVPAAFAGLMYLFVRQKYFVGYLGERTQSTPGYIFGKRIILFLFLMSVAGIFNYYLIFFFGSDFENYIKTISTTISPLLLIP

In the case of `Nc1cnc(-c2ccc(C3CCC3)c(OCC3CCCNC3)c2F)cn1` (racemic) [Example 299, racemic 5-[4-Cyclobutyl-2-fluoro-3-(piperidin-3-ylmethoxy)phenyl]pyrazin-2-amine], the Ki stood at 1960 nM.

`COc1c(C2CCC2)ccc(-c2cnc(N)cn2)c1F` [A, 5-(4-Cyclobutyl-2-fluoro-3-methoxyphenyl)pyrazin-2-amine] came in with a Ki of 52.6 nM.

For the compound `Nc1cnc(-c2ccc(C3CCC3)c(O)c2F)cn1` [B, 3-(5-Aminopyrazin-2-yl)-6-cyclobutyl-2-fluorophenol], the inhibitory constant (Ki) was 83.9 nM.

Regarding `Nc1cnc(-c2ccc(C3CCC3)c(OCc3ccc(C(F)(F)F)cc3)c2F)cn1` [Compound 1, 5-(4-Cyclobutyl-2-fluoro-3-{[4-(trifluoromethyl)benzyl]oxy}phenyl)pyrazin-2-amine], the Ki worked out at 62.8 nM.

`Nc1cnc(-c2ccc(C3CCC3)c(OCc3ccccc3C(F)(F)F)c2F)cn1` [Compound 3, 5-(4-Cyclobutyl-2-fluoro-3-{[2-(trifluoromethyl)benzyl]oxy}phenyl)pyrazin-2-amine] came in with an inhibitory constant (Ki) of 118 nM.

The compound `Nc1cnc(-c2ccc(C3CCC3)c(OCc3cccc(C(=O)O)c3)c2F)cn1` [Compound 4, 3-{[3-(5-Aminopyrazin-2-yl)-6-cyclobutyl-2-fluorophenoxy]methyl}benzoic acid] displayed an inhibitory constant (Ki) of 5.8 nM.

As for `Nc1cnc(-c2ccc(C3CCC3)c(OCc3ccc(C(=O)O)cc3)c2F)cn1` [Compound 5, 4-{[3-(5-Aminopyrazin-2-yl)-6-cyclobutyl-2-fluorophenoxy]methyl}benzoic acid], the affinity corresponds to a Ki of 10.2 nM.

`CS(=O)(=O)c1cccc(COc2c(C3CCC3)ccc(-c3cnc(N)cn3)c2F)c1` [Compound 6, 5-(4-Cyclobutyl-2-fluoro-3-{[3-(methylsulfonyl)benzyl]oxy}phenyl)pyrazin-2-amine] gave a Ki of 13.6 nM.

As to `CS(=O)(=O)c1ccc(COc2c(C3CCC3)ccc(-c3cnc(N)cn3)c2F)cc1` [Compound 7, 5-(4-Cyclobutyl-2-fluoro-3-{[4-(methylsulfonyl)benzyl]oxy}phenyl)pyrazin-2-amine], the affinity, expressed as Ki, was 7.4 nM.

Compound `CC(=O)c1ccc(COc2c(C3CCC3)ccc(-c3cnc(N)cn3)c2F)cc1` [Compound 12, 1-(4-{[3-(5-Aminopyrazin-2-yl)-6-cyclobutyl-2-fluorophenoxy]methyl}phenyl)ethanone] returned a Ki of around 89.9 nM.

With `Nc1cnc(-c2ccc(C3CCC3)c(OCc3cccnc3)c2F)cn1` [Compound 13, 5-[4-Cyclobutyl-2-fluoro-3-(pyridin-3-ylmethoxy)phenyl]pyrazin-2-amine], the Ki was 27.1 nM.

Compound `Nc1cnc(-c2ccc(C3CCC3)c(OCc3ccncc3)c2F)cn1` [Compound 14, 5-[4-Cyclobutyl-2-fluoro-3-(pyridin-4-ylmethoxy)phenyl]pyrazin-2-amine] showed a Ki of 22.6 nM.

With `N#Cc1cccc(COc2c(C3CCC3)ccc(-c3cnc(N)cn3)c2F)c1` [Compound 16, 3-{[3-(5-Aminopyrazin-2-yl)-6-cyclobutyl-2-fluorophenoxy]methyl}benzonitrile], the Ki turned out to be 19.9 nM.

For `NC(=O)c1cccc(COc2c(C3CCC3)ccc(-c3cnc(N)cn3)c2F)c1` [Compound 17, 3-{[3-(5-Aminopyrazin-2-yl)-6-cyclobutyl-2-fluorophenoxy]methyl}benzamide], the inhibition constant Ki worked out at 12.5 nM.

As for `N#Cc1ccccc1COc1c(C2CCC2)ccc(-c2cnc(N)cn2)c1F` [Compound 18, 2-{[3-(5-Aminopyrazin-2-yl)-6-cyclobutyl-2-fluorophenoxy]methyl}benzonitrile], the affinity corresponds to a Ki of 59 nM.

In the case of `NC(=O)c1ccccc1COc1c(C2CCC2)ccc(-c2cnc(N)cn2)c1F` [Compound 19, 2-{[3-(5-Aminopyrazin-2-yl)-6-cyclobutyl-2-fluorophenoxy]methyl}benzamide], the Ki is 3.8 nM.

For `Nc1cnc(-c2ccc(C3CCC3)c(OCc3ccc(CC(=O)O)cc3)c2F)cn1` [Compound 23, (4-{[3-(5-Aminopyrazin-2-yl)-6-cyclobutyl-2-fluorophenoxy]methyl}phenyl)acetic acid], the Ki was found to be 3.7 nM.

As to `Nc1cnc(-c2ccc(C3CCC3)c(OCc3ccccn3)c2F)cn1` [Compound 24, 5-[4-Cyclobutyl-2-fluoro-3-(pyridin-2-ylmethoxy)phenyl]pyrazin-2-amine], the Ki came out at 16.2 nM.

`CNS(=O)(=O)c1ccc(COc2c(C3CCC3)ccc(-c3cnc(N)cn3)c2F)cc1` [Compound 27, 4-{[3-(5-Aminopyrazin-2-yl)-6-cyclobutyl-2-fluorophenoxy]methyl}-N-methylbenzenesulfonamide]: the Ki was 6.4 nM.

In turn, `Nc1cnc(-c2ccc(C3CCC3)c(OCc3ccc(F)cc3)c2F)cn1` [Compound 28, 5-{4-Cyclobutyl-2-fluoro-3-[(4-fluorobenzyl)oxy]phenyl}pyrazin-2-amine] yielded a Ki of 66.2 nM.

`Nc1cnc(-c2ccc(C3CCC3)c(OCc3cccc(F)c3)c2F)cn1` [Compound 29, 5-{4-Cyclobutyl-2-fluoro-3-[(3-fluorobenzyl)oxy]phenyl}pyrazin-2-amine] yielded a Ki of 24.6 nM.

The compound `Nc1cnc(-c2ccc(C3CCC3)c(OCc3ccccc3F)c2F)cn1` [Compound 30, 5-{4-Cyclobutyl-2-fluoro-3-[(2-fluorobenzyl)oxy]phenyl}pyrazin-2-amine] came in with a Ki of 33.5 nM.

In the case of `Nc1cnc(-c2ccc(C3CCC3)c(OCc3ccc(F)c(F)c3)c2F)cn1` [Compound 33, 5-{4-Cyclobutyl-3-[(3,4-difluorobenzyl)oxy]-2-fluorophenyl}pyrazin-2-amine], the Ki is around 250 nM.

`Nc1cnc(-c2ccc(C3CCC3)c(OCc3cc(Cl)ccc3Cl)c2F)cn1` [Compound 38, 5-{4-Cyclobutyl-3-[(2,5-dichlorobenzyl)oxy]-2-fluorophenyl}pyrazin-2-amine]: the Ki was around 250 nM.

`Nc1cnc(-c2ccc(C3CCC3)c(OCc3ccccc3C(=O)O)c2F)cn1` [Example 46, 2-{[3-(5-Aminopyrazin-2-yl)-6-cyclobutyl-2-fluorophenoxy]methyl}benzoic acid] yielded a Ki of 6.9 nM.

For `CC(C)(C)OC(=O)COc1c(C2CCC2)ccc(-c2cnc(N)cn2)c1F` [Example 49, tert-Butyl [3-(5-aminopyrazin-2-yl)-6-cyclobutyl-2-fluorophenoxy]acetate], the Ki was around 134 nM.

For `Nc1cnc(-c2ccc(C3CCC3)c(OCC(=O)O)c2F)cn1` [Example 50, [3-(5-Aminopyrazin-2-yl)-6-cyclobutyl-2-fluorophenoxy]acetic acid], the Ki amounted to 787 nM.

As for `CS(=O)(=O)N1CCC(COc2c(C3CCC3)ccc(-c3cnc(N)cn3)c2F)CC1` [Example 68, 5-(4-Cyclobutyl-2-fluoro-3-{[1-(methylsulfonyl)piperidin-4-yl]methoxy}phenyl)pyrazin-2-amine], the affinity, expressed as Ki, was 136 nM.

The compound `Cc1ccnc(Oc2c(C3CCC3)ccc(-c3cnc(N)cn3)c2F)n1` [Example 69, 5-{4-Cyclobutyl-2-fluoro-3-[(4-methylpyrimidin-2-yl)oxy]phenyl}pyrazin-2-amine] registered a Ki of 14 nM.

`Cc1nc(COc2c(C3CCC3)ccc(-c3cnc(N)cn3)c2F)no1` [Example 70, 5-{4-Cyclobutyl-2-fluoro-3-[(5-methyl-1,2,4-oxadiazol-3-yl)methoxy]phenyl}pyrazin-2-amine]: the affinity corresponds to a Ki of 34.2 nM.

`Nc1cnc(-c2ccc(C3CCC3)c(OCC3CCCCC3)c2F)cn1` [Example 71, 5-[4-Cyclobutyl-3-(cyclohexylmethoxy)-2-fluorophenyl]pyrazin-2-amine] gave an inhibition constant Ki of 421 nM.

Take `Nc1cnc(-c2ccc(C3CCC3)c(OCC3CC3)c2F)cn1` [Example 72, 5-[4-Cyclobutyl-3-(cyclopropylmethoxy)-2-fluorophenyl]pyrazin-2-amine]: the Ki was determined as 23.7 nM.

For `CCOC(=O)c1ccc(COc2c(C3CCC3)ccc(-c3cnc(N)cn3)c2F)o1` [Example 73, Ethyl 5-{[3-(5-aminopyrazin-2-yl)-6-cyclobutyl-2-fluorophenoxy]methyl}furan-2-carboxylate], the Ki turned out to be 275 nM.

`CC(C)(C)OC(=O)N1CCC(COc2c(C3CCC3)ccc(-c3cnc(N)cn3)c2F)CC1` [Example 74, tert-Butyl 4-{[3-(5-aminopyrazin-2-yl)-6-cyclobutyl-2-fluorophenoxy]methyl}piperidine-1-carboxylate] came in with a Ki of 175 nM.

`Nc1cnc(-c2ccc(C3CCC3)c(OCc3cc(S(F)(F)(F)(F)F)ccc3F)c2F)cn1` [Example 77, 5-(4-Cyclobutyl-2-fluoro-3-{[2-fluoro-5-(pentafluoro-lambda˜6˜-sulfanyl)benzyl]oxy}phenyl)pyrazin-2-amine]: the Ki was around 200 nM.

Turning to `Nc1cnc(-c2ccc(C3CCC3)c(OCC3CCC3)c2F)cn1` [Example 82, 5-[4-Cyclobutyl-3-(cyclobutylmethoxy)-2-fluorophenyl]pyrazin-2-amine], the Ki was 208 nM.

`Nc1cnc(-c2ccc(C3CCC3)c(OCc3ccccc3)c2F)cn1` [Example 83, 5-[3-(Benzyloxy)-4-cyclobutyl-2-fluorophenyl]-pyrazin-2-amine] showed an inhibitory constant (Ki) of 44.5 nM.

`Nc1cnc(-c2ccc(C3CCC3)c(OCc3ccc(C(=O)O)o3)c2F)cn1` [Example 85, 5-{[3-(5-Aminopyrazin-2-yl)-6-cyclobutyl-2-fluorophenoxy]methyl}furan-2-carboxylic acid] had an inhibition constant Ki of 28.1 nM.

In the case of `Cc1cc(N)nc(Oc2c(C3CCC3)ccc(-c3cnc(N)cn3)c2F)n1` [Example 86, 2-[3-(5-Aminopyrazin-2-yl)-6-cyclobutyl-2-fluorophenoxy]-6-methylpyrimidin-4-amine], the Ki is 6.2 nM.

For `Nc1cnc(-c2ccc(C3CCC3)c(Oc3nccc(-c4ccccc4)n3)c2F)cn1` [Example 87, 5-{4-Cyclobutyl-2-fluoro-3-[(4-phenylpyrimidin-2-yl)oxy]phenyl}pyrazin-2-amine], the Ki worked out at 2.1 nM.

Values taken from US9732093B2, “FLAP modulators” (JANSSEN PHARMACEUTICA NV, priority 2013, dated 2017).
